Measured values published in PubChem BioAssay AID248 (DTP/NCI, 2004).
“And” between values parts separate entries of the source, which are not always exact repeats. Equal values may be shown once. Inconclusive results and toxic doses are left out. Rule as the data show it: active = T/C of 150% or more; inactive = T/C below 125%.

System: L1210 leukemia ip in BDF1 mice, survival T/C
Assay: NCI In Vivo Anticancer Drug Screen. Data for tumor model L1210 Leukemia (intraperitoneal) in B6D2F1 (BDF1) mice
Details: endpoint: mean survival time, higher = longer survival
Outline: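 Read-out is survival time, reported as the treated-group measurement over the vehicle-control measurement.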

[1] = dose: 100.0 mg/kg/injection, schedule: Q01DX001 (ip), vehicle: carboxymethylcellulose (CMC)
[2] = dose: 200.0 mg/kg/injection, schedule: Q01DX001 (ip), vehicle: carboxymethylcellulose (CMC)
[3] = dose: 400.0 mg/kg/injection, schedule: Q01DX001 (ip), vehicle: carboxymethylcellulose (CMC)
[4] = dose: 100.0 mg/kg/injection, schedule: Q01DX009 (ip), vehicle: Klucel (hydroxypropylcellulose) (HPC)
[5] = dose: 100.0 mg/kg/injection, schedule: Q01DX001 (ip), vehicle: saline
[6] = dose: 200.0 mg/kg/injection, schedule: Q01DX001 (ip), vehicle: saline
[7] = dose: 100.0 mg/kg/injection, schedule: Q04DX003 (ip), vehicle: gum acacia
[8] = dose: 400.0 mg/kg/injection, schedule: Q01DX001 (ip), vehicle: saline
[9] = dose: 200.0 mg/kg/injection, schedule: Q01DX005 (ip), vehicle: saline

Measured: T/C

CCOC(=O)c1ccc(NS(=O)(=O)c2ccc(Cl)cc2[N+](=O)[O-])cc1
inactive: [1] 99 % of control | dose: 100.0 mg/kg/injection, schedule: Q01DX009 (ip), vehicle: carboxymethylcellulose (CMC) 112 % of control and 88 % of control | dose: 100.0 mg/kg/injection, schedule: Q04DX002 (ip), vehicle: carboxymethylcellulose (CMC) 96 % of control and 90 % of control | dose: 100.0 mg/kg/injection, schedule: Q04DX003 (ip), vehicle: carboxymethylcellulose (CMC) 105 % of control | [2] 101 % of control | dose: 200.0 mg/kg/injection, schedule: Q01DX009 (ip), vehicle: carboxymethylcellulose (CMC) 88 % of control and 89 % of control | dose: 200.0 mg/kg/injection, schedule: Q04DX002 (ip), vehicle: carboxymethylcellulose (CMC) 93 % of control and 91 % of control | dose: 200.0 mg/kg/injection, schedule: Q04DX003 (ip), vehicle: carboxymethylcellulose (CMC) 102 % of control | [3] 103 % of control | dose: 400.0 mg/kg/injection, schedule: Q01DX009 (ip), vehicle: carboxymethylcellulose (CMC) 88 % of control and 91 % of control | dose: 400.0 mg/kg/injection, schedule: Q04DX002 (ip), vehicle: carboxymethylcellulose (CMC) 93 % of control | dose: 400.0 mg/kg/injection, schedule: Q04DX003 (ip), vehicle: carboxymethylcellulose (CMC) 93 % of control

Cc1ccc(CNc2ccc(Cl)cc2)cc1
inactive: [4] 95 % of control | dose: 100.0 mg/kg/injection, schedule: Q04DX003 (ip), vehicle: Klucel (hydroxypropylcellulose) (HPC) 96 % of control | dose: 200.0 mg/kg/injection, schedule: Q01DX009 (ip), vehicle: Klucel (hydroxypropylcellulose) (HPC) 104 % of control | dose: 200.0 mg/kg/injection, schedule: Q04DX003 (ip), vehicle: Klucel (hydroxypropylcellulose) (HPC) 98 % of control | dose: 400.0 mg/kg/injection, schedule: Q04DX003 (ip), vehicle: Klucel (hydroxypropylcellulose) (HPC) 96 % of control

CSc1ncnc2c1ncn2N(CC1CO1)C(C)=O (configuration not stated)
inactive: dose: 100.0 mg/kg/injection, schedule: Q04DX002 (ip), vehicle: saline with Tween-80 91 % of control | dose: 200.0 mg/kg/injection, schedule: Q04DX002 (ip), vehicle: saline with Tween-80 91 % of control | dose: 400.0 mg/kg/injection, schedule: Q04DX002 (ip), vehicle: saline with Tween-80 95 % of control

C=CCCC(=O)OC(C)(C)C
inactive: dose: 25.0 mg/kg/injection, schedule: Q01DX009 (ip), vehicle: water 96 % of control | dose: 50.0 mg/kg/injection, schedule: Q01DX009 (ip), vehicle: water 96 % of control | dose: 100.0 mg/kg/injection, schedule: Q01DX009 (ip), vehicle: water 98 % of control | dose: 200.0 mg/kg/injection, schedule: Q01DX009 (ip), vehicle: water 97 % of control

O=C(O)c1cc([N+](=O)[O-])cs1
inactive: [5] 98 % of control | [6] 104 % of control

O=C(CCN1CC1)OCC1CC1
inactive: dose: 2.5 mg/kg/injection, schedule: Q01DX009 (ip), vehicle: Klucel (hydroxypropylcellulose) (HPC) 103 % of control | dose: 5.0 mg/kg/injection, schedule: Q01DX009 (ip), vehicle: Klucel (hydroxypropylcellulose) (HPC) 97 % of control | dose: 10.0 mg/kg/injection, schedule: Q01DX009 (ip), vehicle: Klucel (hydroxypropylcellulose) (HPC) 105 % of control | dose: 20.0 mg/kg/injection, schedule: Q01DX009 (ip), vehicle: Klucel (hydroxypropylcellulose) (HPC) 114 % of control | dose: 20.0 mg/kg/injection, schedule: Q04DX003 (ip), vehicle: Klucel (hydroxypropylcellulose) (HPC) 98 % of control | dose: 40.0 mg/kg/injection, schedule: Q04DX003 (ip), vehicle: Klucel (hydroxypropylcellulose) (HPC) 101 % of control | dose: 80.0 mg/kg/injection, schedule: Q04DX003 (ip), vehicle: Klucel (hydroxypropylcellulose) (HPC) 97 % of control

NC(=O)C(NC(=O)Nc1ccccc1)C(N)=O
inactive: dose: 12.5 mg/kg/injection, schedule: Q04DX003 (ip), vehicle: gum acacia 100 % of control | dose: 25.0 mg/kg/injection, schedule: Q04DX003 (ip), vehicle: gum acacia 97 % of control | dose: 50.0 mg/kg/injection, schedule: Q04DX003 (ip), vehicle: gum acacia 92 % of control | [7] 98 % of control

Cc1ccc2[nH]c(C)c(C3=CC(=O)c4ccccc4C3=O)c2c1
inactive: dose: 100.0 mg/kg/injection, schedule: Q01DX001 (ip), vehicle: other 97 % of control | dose: 200.0 mg/kg/injection, schedule: Q01DX001 (ip), vehicle: other 92 % of control

Cc1c[n+](Cc2ccccc2)cc(C)n1
inactive: dose: 75.0 mg/kg/injection, schedule: Q01DX001 (ip), vehicle: saline 105 % of control | dose: 150.0 mg/kg/injection, schedule: Q01DX001 (ip), vehicle: saline 98 % of control

Cc1[nH]c2c(O)ccc(O)c2c1C
inactive: [5] 106 % of control | [6] 97 % of control | [8] 106 % of control

CCOC(=O)c1cnc(SCCN2C(=O)c3ccccc3C2=O)[nH]c1=O
inactive: [7] 100 % of control | dose: 200.0 mg/kg/injection, schedule: Q04DX003 (ip), vehicle: gum acacia 102 % of control | dose: 400.0 mg/kg/injection, schedule: Q04DX003 (ip), vehicle: gum acacia 97 % of control

Fc1c(Cl)c(F)c(Cl)c(F)c1Cl
inactive: [1] 94 % of control | [2] 97 % of control | [3] 94 % of control

NNc1ncnc2c(C3OC(CO)C(O)C3O)[nH]nc12 (configuration not stated)
inactive: dose: 12.5 mg/kg/injection, schedule: Q01DX009 (ip), vehicle: Klucel (hydroxypropylcellulose) (HPC) 111 % of control | dose: 20.0 mg/kg/injection, schedule: Q01DX009 (ip), vehicle: water 107 % of control | dose: 25.0 mg/kg/injection, schedule: Q01DX005 (ip), vehicle: Klucel (hydroxypropylcellulose) (HPC) 118 % of control | dose: 30.0 mg/kg/injection, schedule: Q01DX009 (ip), vehicle: water 107 % of control | dose: 45.0 mg/kg/injection, schedule: Q01DX009 (ip), vehicle: water 112 % of control | dose: 50.0 mg/kg/injection, schedule: Q01DX005 (ip), vehicle: Klucel (hydroxypropylcellulose) (HPC) 124 % of control | dose: 50.0 mg/kg/injection, schedule: Q01DX005 (ip), vehicle: saline 118 % of control | dose: 50.0 mg/kg/injection, schedule: Q01DX009 (ip), vehicle: Klucel (hydroxypropylcellulose) (HPC) 113 % of control | dose: 67.0 mg/kg/injection, schedule: Q01DX009 (ip), vehicle: water 122 % of control | [4] 122 % of control | dose: 100.0 mg/kg/injection, schedule: Q04DX003 (ip), vehicle: saline 118 % of control | dose: 100.0 mg/kg/injection, schedule: Q08DX002 (ip), vehicle: saline 102 % of control | dose: 150.0 mg/kg/injection, schedule: Q01DX009 (ip), vehicle: saline 120 % of control | dose: 200.0 mg/kg/injection, schedule: Q01DX005 (ip), vehicle: Klucel (hydroxypropylcellulose) (HPC) 106 % of control | [9] 106 % of control | dose: 200.0 mg/kg/injection, schedule: Q04DX003 (ip), vehicle: saline 122 % of control | dose: 200.0 mg/kg/injection, schedule: Q08DX002 (ip), vehicle: saline 122 % of control | dose: 800.0 mg/kg/injection, schedule: Q08DX002 (ip), vehicle: saline 104 % of control

CN(C)C(=O)c1cc(NC(=O)c2ccc(C(=O)Nc3cc(C(=O)N(C)C)cc(C4=NCCN4)c3)cc2)cc(C2=NCCN2)c1
inactive: dose: 7.5 mg/kg/injection, schedule: Q01DX015 (ip), vehicle: methylcellulose (MC) 98 % of control | dose: 15.0 mg/kg/injection, schedule: Q01DX015 (ip), vehicle: methylcellulose (MC) 98 % of control and 108 % of control | dose: 60.0 mg/kg/injection, schedule: Q01DX015 (ip), vehicle: methylcellulose (MC) 98 % of control

CCS(=O)(=O)C1CCC1OC(C)(C)C (configuration not stated)
inactive: [5] 108 % of control | [6] 108 % of control | [8] 102 % of control

COc1ccccc1C1OC1C(=O)O (configuration not stated)
inactive: [5] 102 % of control | [6] 94 % of control | [8] 103 % of control

O=c1[nH]c(=O)c2n[nH]c(C3OCC(O)C3O)c2[nH]1 (configuration not stated)
inactive: dose: 100.0 mg/kg/injection, schedule: Q01DX005 (ip), vehicle: saline 94 % of control | [9] 97 % of control

O=c1[nH]c(=O)n(Cc2ccccc2)cc1Cc1ccccc1
inactive: dose: 100.0 mg/kg/injection, schedule: Q04DX003 (ip), vehicle: saline with Tween-80 106 % of control | dose: 200.0 mg/kg/injection, schedule: Q04DX003 (ip), vehicle: saline with Tween-80 98 % of control | dose: 400.0 mg/kg/injection, schedule: Q04DX003 (ip), vehicle: saline with Tween-80 101 % of control
